The target of test [1] is T1, LSD1 (Homo sapiens, UniProt O60341).
T1 construct: Recombinant human LSD1 (172–852 aa); by word order LSD1 from Sino Biological
Nature of the test: Lance Ultra LSD1 demethylase TR-FRET enzyme inhibition assay. In kind it is biochemical. As to conditions: for LSD2/LSD1 selectivity (folds): ratio of LSD2 IC50 to LSD1 IC50; for IC50: recombinant human LSD1 (172–852 aa) 2 nM, Bio-H3K4me2 substrate, 1 h, TR-FRET, mean ± SD, n = 3. The text has this:
(§1) These were utilized in both in vitro and in vivo assays. Iscove’s Modified Dulbecco’s Medium (IMDM), Roswell Park Memorial Institute (RPMI)-1640 medium, fetal bovine serum (FBS) and penicillin/streptomycin were purchased from Gibco (Grand Island, New Nork, United States). Recombinant human LSD1 (172–852 aa) and full-length LSD2 were obtained from Sino Biological Inc. and ActiveMotif.
(§2) The inhibitory effects of the tested compounds on LSD1 and LSD2 enzymes were methodically assessed using the Lance Ultra LSD1 Histone H3-Lysine 4 Demethylase Assay Kit from PerkinElmer, adhering to previously published methodologies ([Li et al., 2022]). In brief, the reaction was initiated by adding 4 μL of enzyme solution, with concentrations specified at 2 nM for LSD1 or 172 nM for LSD2, 4 μL of substrate solution [2.5 μM Bio-H3K4me2 ([…])], and 2 μL of tested compound to a Tris buffer (50 mM Tris-HCl, 50 mM NaCl, 0.01% Tween 20, 1 mM DTT, 10 μM FAD, 10% glycerol, pH 9.0) at room temperature and incubated for 1 h. Following the incubation, 5 μL of a detection mixture, comprising an Eu-labeled H3K4me0 antibody and ULight Streptavidin, was added to the reaction. The fluorescence intensity was then measured employing TR-FRET mode with excitation and emission wavelengths set at 320 nm and 665 nm, respectively, utilizing the Envision (PerkinElmer) system. Each experiment was performed in triplicate.

In test [2] the target is T2, LSD2 (Homo sapiens, UniProt Q8NB78).
T2 construct: full-length LSD2; by word order LSD2 from ActiveMotif
T2 sequence (Q8NB78 1-822): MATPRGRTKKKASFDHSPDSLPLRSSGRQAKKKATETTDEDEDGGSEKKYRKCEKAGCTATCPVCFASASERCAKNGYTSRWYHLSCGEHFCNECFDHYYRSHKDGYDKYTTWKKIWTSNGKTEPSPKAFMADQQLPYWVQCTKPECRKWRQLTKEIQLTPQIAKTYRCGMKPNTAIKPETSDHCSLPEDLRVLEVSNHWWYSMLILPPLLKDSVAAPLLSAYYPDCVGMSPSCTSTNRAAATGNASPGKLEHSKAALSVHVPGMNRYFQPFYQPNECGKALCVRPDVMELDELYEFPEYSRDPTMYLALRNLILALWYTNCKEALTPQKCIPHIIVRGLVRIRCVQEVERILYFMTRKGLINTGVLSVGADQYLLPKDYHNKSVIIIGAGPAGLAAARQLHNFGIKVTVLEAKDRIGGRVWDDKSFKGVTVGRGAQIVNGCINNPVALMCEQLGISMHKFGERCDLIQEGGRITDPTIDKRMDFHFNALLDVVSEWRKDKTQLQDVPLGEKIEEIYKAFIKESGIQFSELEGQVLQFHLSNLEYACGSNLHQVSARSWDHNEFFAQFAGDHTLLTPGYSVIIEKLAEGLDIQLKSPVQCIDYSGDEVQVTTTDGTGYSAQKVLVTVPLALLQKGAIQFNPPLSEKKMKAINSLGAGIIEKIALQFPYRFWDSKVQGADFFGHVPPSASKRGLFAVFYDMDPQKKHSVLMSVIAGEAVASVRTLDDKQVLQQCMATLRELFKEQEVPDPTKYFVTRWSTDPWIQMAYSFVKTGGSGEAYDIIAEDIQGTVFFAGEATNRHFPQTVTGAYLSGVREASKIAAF
As to the kind of experiment: Lance Ultra demethylase TR-FRET enzyme inhibition assay, LSD2. In kind it is biochemical. Conditions: full-length LSD2 172 nM, Bio-H3K4me2 substrate, 1 h, mean ± SD, n = 3.
From the text: as §1, §2
A general note: In TR-FRET formats the signal depends on donor and acceptor labels being close together.

For test [3], the system named is MV-4-11 cells. Nature of the test: MTS cell proliferation assay. In kind it is cell-based. Conditions: Homo sapiens, MV4-11, LSD1-addicted MV-4-11 leukemia cells, 72 h. The method, then:
(§3) The myeloid leukemia cell lines MV-4-11, MOLT-4, MOLM-16, HL-60, and the human B lymphocyte cell line […] were purchased from the American Type Culture Collection (ATCC, Manassas, VA, United States). The myeloid leukemia cell line HAL-01 was obtained from the Deutsche Sammlung von Mikroorganismen und Zellkulturen GmbH (DSMZ, Braunschweig, Germany). All cells were cultured in IMDM or RPMI -1640 medium supplemented with 10% FBS, 100 U/mL penicillin, and 100 μg/mL streptomycin. The cells were maintained in a humidified incubator with an atmosphere of 5% CO2 at 37°C.
(§4) The in vitro anti-proliferative activity of the compounds was determined using the CellTiter 96® AQueous NonRadioactive Cell Proliferation Assay Kit (Promega, Madison, United States) as previously described ([Ji et al., 2017]). In brief, 5–10 × 10^3 cells and 180 μL of medium were first seeded into each well of a 96-well plate. Subsequently, the cells were exposed to either 0.2% Dimethyl sulfoxide (DMSO, Aladdin Reagent, Shanghai, China) or a serial dilution of the compounds, prepared from a 10 mM stock solution in DMSO, with the final concentration of DMSO being 0.2% for 72 h. 20 μL of MTS reagent was added to each well, and the culture was incubated in the dark at 37°C for 4 h. Finally, the optical density (OD) was then recorded at 490 nm and 690 nm using a microplate reader from Molecular Devices. The proliferation inhibition rate was calculated according to the following formula: inhibition ratio = (OD of DMSO treated wells - OD of compound treated wells)/(OD of DMSO treated wells - OD of blank wells) × 100%. The IC50 values of the compounds inhibiting cell proliferation were calculated using GraphPad Prism 10 (GraphPad Software Inc., San Diego, CA).

The test system of test [4] is RPMI-8226 cells. As to the kind of experiment: MTS cell proliferation assay. In kind it is cell-based. As to conditions: Homo sapiens, LSD1-non-sensitive RPMI-8226 cells, 72 h. The method, then:
as §3, §4
Background: Tetrazolium dyes change colour on reduction, which living cells bring about.

SMILES strings stand for the structures.

In the case of `O=C(O)c1ccc(CN2CCC(CN[C@@H]3C[C@H]3c3ccccc3)CC2)cc1` [GSK2879552, reference compound], the “LSD2/LSD1 selectivity (folds)” value in test [1] came to 4 folds. Further, the IC50 in test [1] was determined as 24.5 ± 2.26 nM; in test [2], 104 ± 5.75 nM; in test [3], 1.17 ± 0.28 µM; in test [4], 21.3 ± 2.69 µM.

Take `O=S(=O)(c1cccc(-c2ccccc2)c1)N1CCc2cc(C3CC3NCC3CCNCC3)ccc21` (stereo not drawn) [LTM-2]: in test [1], the “LSD2/LSD1 selectivity (folds)” value is listed as 215 folds. Further, the IC50 in test [1] was 10.2 ± 2.71 nM; in test [2], 2200 nM; in test [3], 0.74 ± 0.06 µM; in test [4], > 100 µM.

`O=S(=O)(c1ccc(CO)c(Cl)c1)N1CCc2cc(C3CC3NCC3CCNCC3)ccc21` (stereo not drawn) [LTM-3]: the “LSD2/LSD1 selectivity (folds)” value in test [1] was 668 folds. Further, the IC50 was 4.57 ± 0.32 nM in test [1], 3050 nM in test [2], 0.32 ± 0.04 µM in test [3] and > 100 µM in test [4].

On to `C=CCc1cccc(S(=O)(=O)N2CCc3cc(C4CC4NCC4CCNCC4)ccc32)c1` (stereo not drawn) [LTM-4], for which the “LSD2/LSD1 selectivity (folds)” value in test [1] was 97 folds. Further, the 50% inhibitory concentration (IC50) was 8.92 ± 0.57 nM in test [1], 861 ± 26.7 nM in test [2], 0.63 ± 0.05 µM in test [3] and > 100 µM in test [4].

Consider `O=S(=O)(c1cccc(CC2CC2)c1)N1CCc2cc(C3CC3NCC3CCNCC3)ccc21` (stereo not drawn) [LTM-5], for which the “LSD2/LSD1 selectivity (folds)” value in test [1] was determined as 92 folds. In addition, the IC50 was 7.31 ± 0.46 nM in test [1], 674 ± 21.5 nM in test [2], 0.51 ± 0.03 µM in test [3] and > 100 µM in test [4].

For the compound `O=S(=O)(c1cccc(CC2CCCCC2)c1)N1CCc2cc(C3CC3NCC3CCNCC3)ccc21` (stereo not drawn) [LTM-6], the “LSD2/LSD1 selectivity (folds)” value in test [1] is given as >302 folds. In addition, the IC50 was 16.5 ± 2.39 nM in test [1], > 5000 nM in test [2], 0.98 ± 0.07 µM in test [3] and > 100 µM in test [4].

As usually defined, the IC50 is the midpoint of a concentration-inhibition curve.

Source of the values: publication PMC11903733 (Frontiers in Pharmacology, 2025).
